“Also recorded” adds a separate entry of the source. Like-named read-outs stand apart in the source and are kept apart here. Values belong to the molecule of their own block, whether it stands above or below them.
Experiments:
BCR-ABL1 [1] = molecular target: T1, BCR-ABL1 (Homo sapiens, UniProt P00519); test: BCR-ABL1 signaling and scaffolding in K562 cells (RPPA, immunoblot); assay type: cell-based; parameters: K562 cell lines were purchased from ATCC; BCR N-terminal portion (fusion partner, human BCR P11274); host or cells: K562; the other entry of the earlier key: BCR (P11274, Breakpoint cluster region protein)
Source text: (§1) Samples were lysed in 1× Cell Signaling lysis buffer (#9803S) supplemented with PMSF and complete mini tablets (Sigma #11836153001). Lysates were quantified and separated on 4-15% Tris-glycine polyacrylamide gels. Gels were transferred and then blocked in TBS-Tween buffer with 5% BSA. The following primary antibodies were used: tABL, BD #554148 anti-mouse 1:400; c-ABL1, SantaCruz #24-11 anti-mouse 1:1000; B-tubulin, Millipore #05-66-MI anti-mouse 1:5000; pSTAT5, # CS9351S anti-rabbit 1:1000 pSTAT5, # CS4322 anti-rabbit 1:1000; pBCR-Abl, # CS2865 anti-rabbit 1:1000; pCRKL, # CS491 anti-rabbit 1:1000; pAKT, # CS4060 anti-rabbit 1:1000; pERK, # CS4695 anti-rabbit 1:1000; pSHP-2, Abcam #62322 anti-rabbit 1:1000; pGAB1, # CS3233 anti-rabbit 1:1000; pGAB2, # CS3882 anti-rabbit 1:1000; pSHC, # CS2434 anti-rabbit 1:1000; VHL, # CS68547 anti-rabbit 1:1000; pCRKL, # CS3181S anti-rabbit 1:1000. Following incubation with appropriate HRP-conjugated secondary antibodies, membranes were imaged on a BioRad ChemiDoc using BioRad Clarity Western ECL substrate and Thermo Super Signal West Femto Maximum Sensitivity substrate.
RPPA was performed in the MDACC CCSG core as described at http://www.mdanderson.org/education-and-research/resources-for-professionals/scientific-resources/core-facilities-and-services/functional-proteomics-rppa-core/index.html.
(§2) K562 cells were treated with the indicated concentrations of compound for 24 hours, washed with PBS and then harvested in lysis buffer (50 mM Tris (pH 7.4), 150 mM NaCl, 1 mM EDTA, 0.5% NP-40, phosphatase and protease inhibitors). Following centrifugation at 13,000×g for 15 minutes at 4° C. to pellet insoluble materials, the protein concentrations of the supernatants were quantitated by BCA assay (Thermo Fisher Scientific). Protein samples were resolved by SDS-PAGE, transferred to nitrocellulose, blocked with 5% non-fat milk and probed with the marked antibodies. Immunoblots were developed using enhanced chemiluminescence and visualized using a Bio-Rad Chemi-Doc MP Imaging System with Image Lab v.5.2.1 software (Bio-Rad Laboratories).
Target sequence in this assay (P00519 with tags, fused parts or gaps): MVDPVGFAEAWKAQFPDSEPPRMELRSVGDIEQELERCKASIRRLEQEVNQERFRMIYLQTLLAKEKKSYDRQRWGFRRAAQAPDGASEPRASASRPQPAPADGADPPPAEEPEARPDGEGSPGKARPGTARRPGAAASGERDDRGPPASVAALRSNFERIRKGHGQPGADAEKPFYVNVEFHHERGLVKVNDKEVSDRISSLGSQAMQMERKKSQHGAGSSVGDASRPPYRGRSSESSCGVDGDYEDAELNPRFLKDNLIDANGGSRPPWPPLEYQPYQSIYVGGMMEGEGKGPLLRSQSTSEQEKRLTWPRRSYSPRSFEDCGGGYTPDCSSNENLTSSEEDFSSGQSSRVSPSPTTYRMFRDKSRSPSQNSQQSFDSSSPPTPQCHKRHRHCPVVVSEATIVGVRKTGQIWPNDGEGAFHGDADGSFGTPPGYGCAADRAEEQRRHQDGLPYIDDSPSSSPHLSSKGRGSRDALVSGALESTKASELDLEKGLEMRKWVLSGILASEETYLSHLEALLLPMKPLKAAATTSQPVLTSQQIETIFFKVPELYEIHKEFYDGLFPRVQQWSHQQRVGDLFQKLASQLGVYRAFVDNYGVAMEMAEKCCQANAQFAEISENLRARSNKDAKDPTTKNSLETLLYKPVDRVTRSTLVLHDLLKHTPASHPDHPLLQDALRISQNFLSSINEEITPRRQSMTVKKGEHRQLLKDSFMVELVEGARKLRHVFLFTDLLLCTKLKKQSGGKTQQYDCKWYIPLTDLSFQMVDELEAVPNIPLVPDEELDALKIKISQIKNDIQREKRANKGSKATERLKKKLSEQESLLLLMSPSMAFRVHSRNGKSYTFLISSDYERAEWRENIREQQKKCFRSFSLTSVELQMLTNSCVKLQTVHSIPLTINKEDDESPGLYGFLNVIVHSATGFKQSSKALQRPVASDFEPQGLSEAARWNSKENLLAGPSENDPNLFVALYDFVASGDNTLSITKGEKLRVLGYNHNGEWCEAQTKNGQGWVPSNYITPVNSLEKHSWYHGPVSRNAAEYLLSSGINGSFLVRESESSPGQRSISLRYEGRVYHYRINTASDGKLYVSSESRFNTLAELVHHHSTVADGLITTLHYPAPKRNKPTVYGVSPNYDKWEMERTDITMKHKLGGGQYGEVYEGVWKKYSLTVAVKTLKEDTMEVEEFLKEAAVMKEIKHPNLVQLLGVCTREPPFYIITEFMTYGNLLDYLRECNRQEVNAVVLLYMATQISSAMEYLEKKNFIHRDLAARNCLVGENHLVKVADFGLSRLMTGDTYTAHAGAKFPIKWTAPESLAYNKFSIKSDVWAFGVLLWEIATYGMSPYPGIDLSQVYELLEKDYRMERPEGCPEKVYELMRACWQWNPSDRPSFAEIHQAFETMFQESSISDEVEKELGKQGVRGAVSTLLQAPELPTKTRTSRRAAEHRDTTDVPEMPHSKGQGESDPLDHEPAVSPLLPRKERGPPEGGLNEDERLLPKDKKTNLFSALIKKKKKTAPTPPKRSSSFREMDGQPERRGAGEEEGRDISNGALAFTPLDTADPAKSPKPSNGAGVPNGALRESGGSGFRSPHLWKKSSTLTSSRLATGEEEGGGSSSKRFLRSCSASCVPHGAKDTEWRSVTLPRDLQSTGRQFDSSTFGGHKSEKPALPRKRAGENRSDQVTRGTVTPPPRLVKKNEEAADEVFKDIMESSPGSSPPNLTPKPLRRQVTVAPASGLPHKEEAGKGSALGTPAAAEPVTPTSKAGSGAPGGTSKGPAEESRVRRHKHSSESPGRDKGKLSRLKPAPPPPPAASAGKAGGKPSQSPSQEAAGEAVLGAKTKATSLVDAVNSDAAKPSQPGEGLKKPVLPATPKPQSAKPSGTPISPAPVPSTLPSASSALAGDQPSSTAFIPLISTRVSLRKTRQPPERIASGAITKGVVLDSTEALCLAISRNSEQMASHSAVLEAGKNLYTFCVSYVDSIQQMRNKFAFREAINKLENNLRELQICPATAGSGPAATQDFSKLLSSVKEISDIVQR

[2] = tested on: Ba/F3 BCR-ABL1 T315I cells; test: Cell proliferation of Ba/F3 cells expressing BCR-ABL1 T315I; assay type: cell-based, murine; settings: versus wild-type BCR-ABL1
Method: (§3) Cell lines and patient samples were exposed to dose ranges of single or combination agents and incubated for 3 days at 37° C., 5% CO2 and subjected to a CellTiter 96 AQueous One solution cell proliferation assay (Promega). IC50 values calculated and analyzed using Prism 6 software (GraphPad).

[3] = tested on: Ba/F3 BCR-ABL1 G250E cells; test: Cell proliferation of Ba/F3 cells expressing BCR-ABL1 G250E; assay type: cell-based, murine; settings: versus wild-type BCR-ABL1
Method: as §3

BCR-ABL1 [4] = molecular target: T1, BCR-ABL1; test: Immunoblot of co-treatment with ponatinib in Ba/F3 BCR-ABL1 wild-type cells; assay type: cell-based, murine; parameters: BCR N-terminal portion (fusion partner, BCR P11274); expressed in transfected cells; the other entry of the earlier key: BCR (P11274, Breakpoint cluster region protein); settings: overnight co-treatment with ponatinib
Source text: as §1
Target sequence in this assay (P00519 28-1130 limits assumed): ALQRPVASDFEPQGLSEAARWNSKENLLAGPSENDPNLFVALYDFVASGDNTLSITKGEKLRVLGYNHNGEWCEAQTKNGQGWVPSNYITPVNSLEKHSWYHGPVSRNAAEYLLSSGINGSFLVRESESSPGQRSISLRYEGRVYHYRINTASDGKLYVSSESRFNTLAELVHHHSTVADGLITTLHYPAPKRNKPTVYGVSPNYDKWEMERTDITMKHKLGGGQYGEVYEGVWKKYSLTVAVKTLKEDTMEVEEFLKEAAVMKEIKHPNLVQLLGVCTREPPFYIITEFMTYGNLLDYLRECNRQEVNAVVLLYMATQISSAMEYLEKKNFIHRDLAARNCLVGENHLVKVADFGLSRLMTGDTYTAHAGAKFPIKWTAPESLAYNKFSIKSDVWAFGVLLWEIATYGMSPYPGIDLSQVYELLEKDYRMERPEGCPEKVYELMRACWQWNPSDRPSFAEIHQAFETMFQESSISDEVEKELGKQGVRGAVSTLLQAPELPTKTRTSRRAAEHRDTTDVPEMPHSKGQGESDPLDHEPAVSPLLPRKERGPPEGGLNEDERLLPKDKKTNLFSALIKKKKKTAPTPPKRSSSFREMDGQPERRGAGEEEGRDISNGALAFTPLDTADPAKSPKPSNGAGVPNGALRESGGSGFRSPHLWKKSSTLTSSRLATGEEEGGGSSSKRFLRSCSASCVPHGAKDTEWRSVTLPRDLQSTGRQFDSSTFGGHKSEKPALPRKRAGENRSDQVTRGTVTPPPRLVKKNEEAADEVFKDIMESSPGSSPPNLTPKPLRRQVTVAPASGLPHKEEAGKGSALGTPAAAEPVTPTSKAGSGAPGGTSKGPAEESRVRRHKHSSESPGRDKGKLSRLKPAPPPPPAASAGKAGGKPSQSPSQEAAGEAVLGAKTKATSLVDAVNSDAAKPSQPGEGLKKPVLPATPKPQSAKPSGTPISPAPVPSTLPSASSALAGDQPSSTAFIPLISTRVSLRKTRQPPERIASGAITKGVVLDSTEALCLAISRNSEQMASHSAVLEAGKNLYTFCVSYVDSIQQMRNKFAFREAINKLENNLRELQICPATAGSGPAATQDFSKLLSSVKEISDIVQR

BCR-ABL1 [5] = molecular target: T1, BCR-ABL1; test: BCR-ABL1 / c-ABL1 degradation in K562 cells by immunoblot; assay type: cell-based; parameters: K562 cell lines were purchased from ATCC; BCR N-terminal portion (fusion partner, human BCR P11274); host or cells: K562; the other entry of the earlier key: BCR (P11274, Breakpoint cluster region protein); settings: for DC50 / BCR-Abl and c-Abl levels on co-treatment with GMB-805 (Compound 19) / BCR-ABL1 and c-ABL1 levels on co-treatment with Compound 10: K562 cells; for BCR-Abl and c-Abl levels on co-treatment with GMB-805 (Compound 19): 1 μM GMB-805, 8 hours; for BCR-ABL1 and c-ABL1 levels on co-treatment with Compound 10: 8 hour treatment, compared to Compound 10 alone
Method: The cells were collected at 300 g for 3 min. […] The total protein concentrations were determined by Pierce BCA Protein Assay and 30-50 μg of protein was loaded onto 10% Tris-Glycine gels. After standard gel electrophoresis, the separated proteins were transferred to nitrocellulose by wet transfer. The immunoblots were then processed by standard procedures and incubated with the respective antibodies. Band intensities were quantified by Bio-Rad's Image Lab software.
Gels were transferred and then blocked in TBS-Tween buffer with 5% BSA. […] Following incubation with appropriate HRP-conjugated secondary antibodies, membranes were imaged on a BioRad ChemiDoc using BioRad Clarity Western ECL substrate and Thermo Super Signal West Femto Maximum Sensitivity substrate.
as §2, with “Following” for “K562 cells were treated with the indicated concentrations of compound for 24 hours, washed with PBS and then harvested in lysis buffer (50 mM Tris (pH 7.4), 150 mM NaCl, 1 mM EDTA, 0.5% NP-40, phosphatase and protease inhibitors). Following”
Target sequence in this assay (P00519 with tags, fused parts or gaps): as the sequence (P00519 with tags, fused parts or gaps) above

[6] = tested on: BCR-ABL1 transformed Ba/F3 cells; test: Cell proliferation of BCR-ABL1 transformed Ba/F3 cells (MTS); assay type: cell-based, murine
Method: as §3
Plates were incubated at 37° C. for 72 h and analyzed by standard MTS-based colorimetric assay. Non-linear regression curve-fit analysis and IC50 calculations were performed using Graphpad Prism software.

K562 cells [7] = test: K562 cell proliferation assay; assay type: cell-based; settings: Homo sapiens
Method: as §3

[8] = tested on: primary CML CD34+ patient cells; test: Apoptosis (Annexin V) in primary CML patient cells; assay type: cell-based, human; settings: patient 1; no appreciable difference between PROTAC and diastereomer control
Method: Mononuclear cells (MNCs) were isolated from either peripheral blood, bone marrow or leukapheresis samples by Ficoll gradient. MNCs were then treated with ammonium-chloride-potassium (ACK) lysis buffer to remove any residual red blood cells. […] For cell proliferation assays, samples were thawed and cultured in R10. For immunoblot assays, samples were thawed and cultured in IMDM with 40 μg/mL low-density lipoprotein (LDL, Stem Cell), 20% FBS, and 100 μM beta-mercaptaethanol (Sigma).
Sorted samples were recovered overnight in culture in IMDM with 40 μg/mL low-density lipoprotein (LDL, Stem Cell), 20% FBS, and 100 μM beta-mercaptaethanol (Sigma).

BCR-ABL1 [9] = molecular target: T1, BCR-ABL1; test: BCR-ABL1 degradation in primary patient LSCs (CD34+CD38-) by immunoblot; assay type: cell-based; parameters: induce degradation of both BCR-ABL1 and ABL1 in primary patient LSCs; BCR N-terminal portion (fusion partner, human BCR P11274); endogenous in cells; host or cells: primary CML patient CD34+/CD38- cells (patient 1); the other entry of the earlier key: BCR (P11274, Breakpoint cluster region protein); settings: CD34+/CD38- cells, patient 1, overnight
Method: MNCs isolated from specimens via ficoll, then selected for CD34+ by MACs column. Frozen viables were thawed and cultured in IMDM+40 ug/mL LDL+20% FBS+100 uM BME overnight. Sorted using FACS Aria III, stained with CD34 (BD348801) and CD38 (BD555461).
Cells were lysed in Cell Signaling lysis buffer supplemented with PMSF and Complete Mini protease inhibitor tablets. Protein concentration assessed via BCA assay, ran on 4-15% tris-glycine polyacrylamide gel at 180V for 1 h, transferred overnight at 25V, blocked with 5% BSA in TBST for 1 h and incubated at 4 degree in following primary antibodies.
Target sequence in this assay (P00519 28-1130 limits assumed): as the sequence (P00519 28-1130 limits assumed) above

[10] = tested on: primary CML CD34+ patient cells; test: Proliferation of primary CML patient CD34+ cells; assay type: cell-based, human; settings: CD34+ cells from newly diagnosed CML patients
Method: as §3

[11] = Pharmacokinetics in mouse; assay type: in vivo; settings: 10 mg/kg IP
Method: The pharmacokinetic properties were determined at Pharmaron, China. The exemplary compound was formulated (in 5% EtOH & 5% Solutol HS15 in D5W(ESD-2)) and administered by intraperitoneal (I.P.) injection at a dosing level of 10 mg/kg. Plasma samples were collected at 0.25 hours, 0.5 hours, 1 hour, 2 hours, 4 hours, 8 hours, and 24 hours following dosing.
Acetonitrile was added to precipitate protein and the samples were vortexed for 30 second, centrifuged (4000 rpm, 15 minutes), diluted with water and the compound concentration determined by LC/MS/MS according to a standard curve.

K562 cells [12] = test: K562 xenograft model in athymic mice; assay type: in vivo; settings: 200 mg/kg IP once every 24 hours, day 4-6
Method: K562 cells were implanted subcutaneously into the flank of athymic mice and tumors were allowed to develop to approx. 200 mm^3. Animals were then randomised into treatment or vehicle groups on day 1. On day 4-6, animals were either treated with exemplary compound GMB-805 (Compound 19; 200 mg/kg) or vehicle control by IP injection once every 24 hours.
All in vivo experiments were conducted in accordance with institutional guidelines and were approved by Yale Institutional Animal Care & Use Committee. Mice were housed in pathogen-free animal facilities and with access to food and water ad libitum. K562 cells in Matrigel (Corning Life Sciences) were injected subcutaneously into the flank of athymic mice (Charles River) and allowed to proliferate until tumors reached −200 mm^3 at which point mice were randomized into treatment groups and treated I.P. with vehicle or exemplary compound once a day at 200 mg/kg for 3 days. Tumors were measured via caliper and volumes calculated following equation:
where V=volume, L=Length and W=Width

[13] = tested on: healthy donor CD34+ cells; test: Effect on healthy donor CD34+ cells; assay type: cell-based, human; settings: proliferation and apoptosis

- total ABL1 protein by RPPA (BCR-ABL1 [1]; K562, 5 μM, 8 h): showed a decrease in total ABL1 protein
- Dmax (BCR-ABL1 [5]; K562, read-out: Dmax (%) [cell line]): 95%
- DC50 (BCR-ABL1 [5]; read-out: DC50): 340 nM
- IC50 ([6]; Mus musculus, BaF3, single agent, 72 h (FIG. 6A), read-out: IC50, dose response titration): 1110 nM
- reduction of the IC50 of imatinib by co-treatment ([6]; co-treatment of imatinib with 2.5 μM Compound 10): ~3 fold
- IC50 (K562 cells [7]; FIG. 5B/D: K562 and Ba/F3 BCR-ABL1 cells, read-out: cell proliferation IC50): ~1000 nM
Compound: Cc1ncsc1-c1ccc(CNC(=O)[C@@H]2C[C@@H](O)CN2C(=O)[C@@H](NC(=O)COCCOc2ccc(-c3cc(Nc4ccc(OC(F)(F)F)cc4)ncn3)cc2)C(C)(C)C)cc1 [Compound 10]
- phosphorylation of GAB2 and SHC (BCR-ABL1 [1]; K562, full serum (10% FBS)): able to reduce phosphorylation of GAB2 and SHC
- kinase activity of BCR-ABL1 (pBCR-ABL1 Tyr412, pSTAT-5) (BCR-ABL1 [1]; K562, immunoblot, 8 h and 24 h): able to inhibit the kinase activity of BCR-ABL1
- phosphorylation of GAB2, SHC and STAT5 (BCR-ABL1 [1]; K562, serum-free): able to inhibit phosphorylation of GAB2 and SHC, as well as STAT5
- effect of T315I mutation on potency [2]: had little effect on the potency of Compound 10
- anti-proliferative activity against G250E mutant [3]: enhanced anti-proliferative activity
- effect of co-treatment with ponatinib (immunoblot) (BCR-ABL1 [4]): enhanced the ability of Compound 10 to induce degradation
- degradation of BCR-ABL1 and c-ABL1 (BCR-ABL1 [5]; K562 (FIG. 5A) and Ba/F3 (FIG. 5C) cells, dose- and time-dependent): induce the degradation of BCR-ABL1 and c-ABL1
- apoptosis in sorted progenitor (CD34+CD38+) and stem (CD34+CD38-) cells [8]: induced apoptosis in the progenitor cells and to a lesser extent in the stem cells
- degradation of BCR-ABL1 and ABL1 (BCR-ABL1 [9]): able to induce degradation of both BCR-ABL1 and ABL1
- potency at inhibiting proliferation relative to Compound 14 [10]: greater than 2 fold

Compound: Cc1ncsc1-c1ccc(CNC(=O)[C@@H]2C[C@@H](O)CN2C(=O)[C@@H](NC(=O)COCCNc2ncc(C(=O)Nc3ccc(OC(F)(F)Cl)cc3)cc2-c2ccn[nH]2)C(C)(C)C)cc1 [Compound 19]
- DC50 (BCR-ABL1 [5]; extended dose response, 24 hours (FIG. 16A), read-out: DC50 (concentration at which half maximal degradation is observed)): 30 nM
- Cmax [11]: well over above both the DC50 and IC50
- IC50 (K562 cells [7]; K562 (FIG. 16B), read-out: antiproliferative activity IC50): 169 nM
- toxicity or weight loss (K562 cells [12]): no toxicity or weight loss was observed; also recorded: induced no weight loss
- tumor volume (K562 cells [12]): no significant increase in tumor volume

- BCR-Abl and c-Abl levels on co-treatment with GMB-805 (Compound 19) (BCR-ABL1 [5]): able to rescue protein levels
Compound: NS(=O)(=O)OC[C@@H]1C[C@@H](n2ccc3c(N[C@H]4CCc5ccccc54)ncnc32)C[C@@H]1O [MLN-4924, reference compound]
- BCR-ABL1 and c-ABL1 levels on co-treatment with Compound 10 (BCR-ABL1 [5]): inhibited the degradation of BCR-ABL1 and ABL1

Compound: CC[C@H](C)[C@H](NC(=O)[C@H]([C@@H](C)CC)N(C)C(C)=O)C(=O)N[C@H](C(=O)N[C@@H](CC(C)C)C(=O)[C@@]1(C)CO1)[C@@H](C)O [epoxomicin, reference compound]
- BCR-Abl and c-Abl levels on co-treatment with GMB-805 (Compound 19) (BCR-ABL1 [5]): restored protein concentration back to untreated levels
- BCR-ABL1 and c-ABL1 levels on co-treatment with Compound 10 (BCR-ABL1 [5]): restored the levels of BCR-ABL1 and c-ABL1

Compound: Cc1ccc(NC(=O)c2ccc(CN3CCN(C)CC3)cc2)cc1Nc1nccc(-c2cccnc2)n1 [imatinib]
- effect on healthy donor CD34+ cells [13]: had no effect on healthy donor CD34+ cells

Reference: US20200297725A1, “ALLOSTERIC BCR-ABL PROTEOLYSIS TARGETING CHIMERIC COMPOUNDS” (YALE UNIVERSITY, priority 2019, published 2020)
